PubChem BioAssay AID2060625 (Molecular Pharmacology Branch, DTP, NCI, 2025)
Values joined by “and” are separate entries in the source; they are usually repeats but may differ in a detail not shown here. Identical values can stand only once.

Test system: 186277-243-T-J2-PDC spheroids with HUVEC/MSC, viability
Assay: Anticancer human tumor 186277-243-T-J2-PDC patient-derived colon adenocarcinoma cell line growth inhibition [CLK]
Conditions: for viability, T/C: stronger effect = lower value; active = viability on the fitted dose curve at most 10% of control; inactive = the rest
Outline: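 Multi-cell-type spheroids combined patient-derived tumor cells with HUVEC endothelial cells and human mesenchymal stem cells. Paired agents were dosed in half-log steps down from about clinical Cmax, or from 10 microM where Cmax was unknown.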

[1] = curve of first compound, second compound 0.0316 µM
[2] = curve of first compound, second compound 0.1 µM
[3] = curve of first compound, second compound 0.316 µM
[4] = curve of first compound, second compound 1 µM
[5] = curve of first compound, second compound 3.16 µM
[6] = curve of first compound, second compound 10 µM
[7] = second compound 0.0316 µM, first compound 0.0316 µM
[8] = second compound 0.0316 µM, first compound 0.1 µM
[9] = second compound 0.0316 µM, first compound 0.316 µM
[10] = second compound 0.0316 µM, first compound 1 µM
[11] = second compound 0.0316 µM, first compound 3.16 µM
[12] = second compound 0.0316 µM, first compound 10 µM
[13] = second compound 0.1 µM, first compound 0.0316 µM
[14] = second compound 0.1 µM, first compound 0.1 µM
[15] = second compound 0.1 µM, first compound 0.316 µM
[16] = second compound 0.1 µM, first compound 1 µM
[17] = second compound 0.1 µM, first compound 3.16 µM
[18] = second compound 0.1 µM, first compound 10 µM
[19] = second compound 0.316 µM, first compound 0.0316 µM
[20] = second compound 0.316 µM, first compound 0.1 µM
[21] = second compound 0.316 µM, first compound 0.316 µM
[22] = second compound 0.316 µM, first compound 1 µM
[23] = second compound 0.316 µM, first compound 3.16 µM
[24] = second compound 0.316 µM, first compound 10 µM
[25] = second compound 1 µM, first compound 0.0316 µM
[26] = second compound 1 µM, first compound 0.1 µM
[27] = second compound 1 µM, first compound 0.316 µM
[28] = second compound 1 µM, first compound 1 µM
[29] = second compound 1 µM, first compound 3.16 µM
[30] = second compound 1 µM, first compound 10 µM
[31] = second compound 3.16 µM, first compound 0.0316 µM
[32] = second compound 3.16 µM, first compound 0.1 µM
[33] = second compound 3.16 µM, first compound 0.316 µM
[34] = second compound 3.16 µM, first compound 1 µM
[35] = second compound 3.16 µM, first compound 3.16 µM
[36] = second compound 3.16 µM, first compound 10 µM
[37] = second compound 10 µM, first compound 0.0316 µM
[38] = second compound 10 µM, first compound 0.1 µM
[39] = second compound 10 µM, first compound 0.316 µM
[40] = second compound 10 µM, first compound 1 µM
[41] = second compound 10 µM, first compound 3.16 µM
[42] = second compound 10 µM, first compound 10 µM
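Note: compound exposure lasted seven days before readout.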
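Throughout, for viability, T/C: 100% = DMSO vehicle control wells.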

C=CC(=O)N1CCN(c2nc(=O)n(-c3c(C)ccnc3C(C)C)c3nc(-c4c(O)cccc4F)c(F)cc23)C(C)C1 (stereo not drawn) + CNC(=O)c1ccc(Nc2nc(OC3CCCC3)c3c(-c4ccc5nc(C)oc5c4)c[nH]c3n2)c(OC)c1
2160 nM: IC50 [3]
< 31.6 nM: IC50 [4] | IC50 [5] | IC50 [6]
> 10000 nM: IC50 [1] | IC50 [2]
inactive: viability, T/C [7] 91.3% | viability, T/C [8] 89.6% | viability, T/C [9] 100% | viability, T/C [10] 86.2% | viability, T/C [11] 114% | viability, T/C [12] 110% | viability, T/C [13] 77.3% | viability, T/C [14] 79.4% | viability, T/C [15] 77.7% | viability, T/C [16] 77.8% | viability, T/C [17] 72% | viability, T/C [18] 58.2% | viability, T/C [19] 55.5% | viability, T/C [20] 51.2% | viability, T/C [21] 48% | viability, T/C [22] 57% | viability, T/C [23] 47.4% | viability, T/C [24] 38.5% | viability, T/C [25] 39.4% | viability, T/C [26] 39.4% | viability, T/C [27] 39.3% | viability, T/C [28] 34.7% | viability, T/C [29] 38.3% | viability, T/C [30] 28% | viability, T/C [31] 38.4% | viability, T/C [32] 38.2% | viability, T/C [33] 34.9% | viability, T/C [34] 34.3% | viability, T/C [35] 34.9% | viability, T/C [36] 23.8% | viability, T/C [37] 35.4% | viability, T/C [38] 33.5% | viability, T/C [39] 36.3% | viability, T/C [40] 37.8% | viability, T/C [41] 37.1% | viability, T/C [42] 24.4%

O=C(c1cc(Cc2n[nH]c(=O)c3ccccc23)ccc1F)N1CCN(C(=O)C2CC2)CC1
> 10000 nM: IC50 (curve of compound)
inactive: viability, T/C (compound 0.0316 µM) 102% | viability, T/C (compound 0.1 µM) 90% and 99.4% | viability, T/C (compound 0.316 µM) 101% and 109% | viability, T/C (compound 1 µM) 114% and 110% | viability, T/C (compound 3.16 µM) 118% and 119% | viability, T/C (compound 10 µM) 126% and 103%

C#Cc1c(F)ccc2cc(O)cc(-c3ncc4c(N5CC6CCC(C5)N6)nc(OCC56CCCN5CC(F)C6)nc4c3F)c12 (stereo not drawn) + CNC(=O)c1ccc(Nc2nc(OC3CCCC3)c3c(-c4ccc5nc(C)oc5c4)c[nH]c3n2)c(OC)c1
inactive: viability, T/C [7] 85.1% | viability, T/C [8] 74.1% | viability, T/C [9] 42.3% | viability, T/C [10] 20.4% | viability, T/C [11] 15.4% | viability, T/C [12] 9.35% | viability, T/C [13] 32.4% | viability, T/C [14] 20.2% | viability, T/C [15] 12.4% | viability, T/C [19] 16.6% | viability, T/C [20] 10.6% | viability, T/C [25] 13.1% | viability, T/C [26] 9.92% | viability, T/C [31] 12% | viability, T/C [37] 15.6%
244 nM: IC50 [1]
active: viability, T/C [16] 10.1% | viability, T/C [17] 9.23% | viability, T/C [18] 7.22% | viability, T/C [21] 9.98% | viability, T/C [22] 7.75% | viability, T/C [23] 6.06% | viability, T/C [24] 5.84% | viability, T/C [27] 6.68% | viability, T/C [28] 8.68% | viability, T/C [29] 7.28% | viability, T/C [30] 3.31% | viability, T/C [32] 11.4% | viability, T/C [33] 6.47% | viability, T/C [34] 5.65% | viability, T/C [35] 6.73% | viability, T/C [36] 4.61% | viability, T/C [38] 9.24% | viability, T/C [39] 6.48% | viability, T/C [40] 5.74% | viability, T/C [41] 6.36% | viability, T/C [42] 3.45%
< 31.6 nM: IC50 [2] | IC50 [3] | IC50 [4] | IC50 [5] | IC50 [6]

CCc1c2c(nc3ccc(O)cc13)-c1cc3c(c(=O)n1C2)COC(=O)[C@]3(O)CC
53.4 nM and 34.3 nM: IC50 (curve of compound)
inactive: viability, T/C (compound 0.00316 µM) 115% and 111% | viability, T/C (compound 0.01 µM) 95.3% and 79.7% | viability, T/C (compound 0.0316 µM) 66.4% and 56.8% | viability, T/C (compound 0.1 µM) 30.3% and 24.5% | viability, T/C (compound 0.316 µM) 26% and 21.8% | viability, T/C (compound 1 µM) 21.6% and 16.9%
